The record followed here is patent publication US6869941B2, “Combination of drospirenone and an estrogen sulphamate for HRT” (Schering AG, priority 2001, dated 2005).

Common to all, as to assay type: physicochemical
The nature of data set [1]: In vitro dissolution, USP XXIII Paddle Method. Conditions: micronized form; rapid dissolution defined as at least 70% over about 30 minutes from a 3 mg tablet in 900 ml of water at 37° C., apparatus 2 at 50 rpm.
Data set [2] can be described thus: Chemical stability of drospirenone under acid and alkaline conditions.
A short description of data set [3]: Solubility of drospirenone in water and aqueous buffers. Conditions: water and aqueous buffers at various pH values.

For `C[C@]12CCC(=O)C=C1[C@@H]1C[C@@H]1[C@H]1[C@@H]3[C@@H]4C[C@@H]4[C@@]4(CCC(=O)O4)[C@@]3(C)CC[C@@H]12` [Drospirenone], the “dissolution of the active compound from the dosage unit in vitro” value in data set [1] is reported as “rapid dissolution”. In addition, the “stability under acid conditions” value in data set [2] (acid conditions) was “rearranged to an inactive isomer”. Moreover, the “stability under alkaline conditions” value in data set [2] (alkaline conditions) is “hydrolysed”. Moreover, the solubility result in data set [3] is listed as “sparingly soluble”.
